Patent US10562909B2, “Fused quadracyclic compounds, compositions and uses thereof” (Tabomedex Biosciences, LLC, priority 2016, dated 2020)

Molecular target: MAPKAPK2 (Homo sapiens, UniProt P49137)
Test: MK2 Enzymatic Assay
Format: biochemical
Details: 0.5 nM MAPKAPK2, 3 μM ATP, 2 μM Ser/Thr4 peptide, 23° C., values given as concentration bins
How it was run: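 Percent phosphorylation was derived from coumarin and fluorescein emissions relative to 0% and 100% phospho-peptide controls, read after a 120 min development step. Reactions used 2× stocks of 1 nM kinase, 4 μM peptide and 6 μM ATP; enzyme and peptide sat 20 min before a 120 min ATP reaction.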

Chain of MAPKAPK2 (P49137 whole entry, species assumed): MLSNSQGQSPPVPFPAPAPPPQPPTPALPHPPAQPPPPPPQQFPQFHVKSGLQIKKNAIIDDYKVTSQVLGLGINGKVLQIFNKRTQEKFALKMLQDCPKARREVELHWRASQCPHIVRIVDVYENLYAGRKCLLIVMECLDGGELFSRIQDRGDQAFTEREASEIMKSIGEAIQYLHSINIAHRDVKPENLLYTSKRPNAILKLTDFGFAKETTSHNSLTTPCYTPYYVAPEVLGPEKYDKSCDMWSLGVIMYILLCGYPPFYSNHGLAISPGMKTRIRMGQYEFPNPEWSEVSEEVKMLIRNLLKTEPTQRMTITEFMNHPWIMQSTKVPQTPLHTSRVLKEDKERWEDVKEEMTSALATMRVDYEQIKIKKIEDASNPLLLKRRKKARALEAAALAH

| SMILES | IC50 [µM] |
| --- | --- |
| CN(C)C[C@@H]1CN(c2ccc3c(c2)Cn2cc(-c4ccc(F)cc4)cc2-c2ncnn2-3)C[C@H]1O [Compound 422, (3S,4R)-4-((dimethylamino)methyl)-1-(12-(4-fluorophenyl)-9H-benzo[e]pyrrolo[1,2-a][1,2,4]triazolo[5,1-c][1,4]diazepin-7-yl)pyrrolidin-3-ol] | < 0.05 |
| CN(C)[C@@H]1CN(c2ccc3c(c2)Cn2cc(-c4ccc(F)cc4)cc2-c2nccn2-3)C[C@@H]1O [Compound 353, (3S,4R)-4-(dimethylamino)-1-(12-(4-fluorophenyl)-9H-benzo[e]imidazo[2,1-c]pyrrolo[1,2-a] [1,4]diazepin-7-yl)pyrrolidin-3-ol] | < 0.05 |
| CN(C)[C@H]1CCN(c2ccc3c(c2)Cn2cc(-c4ccc(F)cc4)cc2-c2nccn2-3)C1 [Compound 380, (S)-1-(12-(4-fluorophenyl)-9H-benzo[e]imidazo[2,1-c]pyrrolo[1,2-a][1,4]diazepin-7-yl)-N,N-dimethylpyrrolidin-3-amine] | < 0.05 |
| CN(C)C[C@@H]1CN(c2ccc3c(n2)Cn2cc(-c4ccc(F)cc4)cc2-c2nccn2-3)C[C@@H]1O [Compound 430, (3R,4R)-4-((dimethylamino)methyl)-1-(12-(4-fluorophenyl)-9H-imidazo[2,1-c]pyrido[3,2-e]pyrrolo[1,2-a][1,4]diazepin-7-yl)pyrrolidin-3-ol] | < 0.05 |
| N#Cc1ccc(-c2cc3n(c2)Cc2cc(N4CC[C@H]5NCC[C@@H]54)ccc2-n2ncnc2-3)cc1 (racemic) [Compound 249, 4-(7-(trans-hexahydropyrrolo[3,2-b]pyrrol-1(2H)-yl)-9H-benzo[e]pyrrolo[1,2-a][1,2,4]triazolo[5,1-c][1,4]diazepin-12-yl)benzonitrile] | < 0.05 |
| CCNC[C@@H]1CCN(c2ccc3c(c2)Cn2cc(-c4ccc(F)cc4)cc2-c2nccn2-3)C1 [Compound 464, (S)—N-((1-(12-(4-fluorophenyl)-9H-benzo[e]imidazo[2,1-c]pyrrolo[1,2-a][1,4]diazepin-7-yl)pyrrolidin-3-yl)methyl)ethanamine] | < 0.05 |
| CNCC1CN(c2ccc3c(c2)Cn2cc(-c4ccc(F)cc4)cc2-c2nccn2-3)C1 [Compound 341, 1-(1-(12-(4-fluorophenyl)-9H-benzo[e]imidazo[2,1-c]pyrrolo[1,2-a][1,4]diazepin-7-yl)azetidin-3-yl)-N-methylmethanamine] | < 0.05 |
| CN[C@@H]1CCN(c2ccc3c(c2)Cn2cc(-c4ccc(F)cc4)cc2-c2ncnn2-3)C1 [Compound 409, (R)-1-(12-(4-fluorophenyl)-9H-benzo[e]pyrrolo[1,2-a][1,2,4]triazolo[5,1-c][1,4]diazepin-7-yl)-N-methylpyrrolidin-3-amine] | 0.1 to 0.2 |
| CN(C)C[C@@H]1CCN(c2cc3c(cn2)-n2cnnc2-c2cc(-c4ccc(F)cc4)cn2C3)C1 [Compound 443, (S)-1-(1-(12-(4-fluorophenyl)-9H-pyrido[3,4-e]pyrrolo[1,2-a][1,2,4]triazolo[3,4-c][1,4]diazepin-7-yl)pyrrolidin-3-yl)-N,N-dimethylmethanamine] | 0.1 to 0.2 |
| CN(C)CCC1CCN(c2ccc3c(c2)Cn2cc(-c4ccc(F)cc4)cc2-c2nccn2-3)C1 (stereo not drawn) [Compound 488, 2-(1-(12-(4-fluorophenyl)-9H-benzo[e]imidazo[2,1-c]pyrrolo[1,2-a][1,4]diazepin-7-yl)pyrrolidin-3-yl)-N,N-dimethylethanamine] | < 0.05 |
| CC1c2cc(N3C[C@@H](CN(C)C)[C@H](O)C3)ccc2-n2ccnc2-c2cc(-c3ccc(F)cc3)cn21 (stereo partly drawn) [Compound 507, (3S,4R)-4-((dimethylamino)methyl)-1-(12-(4-fluorophenyl)-9-methyl-9H-benzo[e]imidazo[2,1-c]pyrrolo[1,2-a][1,4]diazepin-7-yl)pyrrolidin-3-ol] | < 0.05 |
| CN(C)C[C@@H]1CN(c2ccc3c(n2)Cn2cc(-c4ccc(C#N)cc4)cc2-c2nccn2-3)C[C@H]1O [Compound 307, 4-(7-((3R,4S)-3-((dimethylamino)methyl)-4-hydroxypyrrolidin-1-yl)-9H-imidazo[2,1-c]pyrido[3,2-e]pyrrolo[1,2-a][1,4]diazepin-12-yl)benzonitrile] | < 0.05 |
